Laboratory results from ChEMBL document CHEMBL4020847, “Discovery of an Orally Bioavailable Inhibitor of Defective in Cullin Neddylation 1 (DCN1)-Mediated Cullin Neddylation” (J Med Chem, 2018).
pIC50: −log10 of the molar value.

Assays:
[1] = Half life in mouse liver microsomes at 0.8 uM by LC-MS/MS analysis; type: ADME, microsome
DCN1-like protein 1 = DCN1-like protein 1 (Homo sapiens, UniProt Q96GG9)
Description: Inhibition of biotin-labeled DCN1 (unknown origin) assessed as reduction in protein interaction with Ac-UBE2M12-AlexaFluor488 after 1 hr by TR-FRET assay

[2] = Intrinsic clearance in mouse liver microsomes at 0.8 uM by LC-MS/MS analysis; type: ADME, microsome; settings: read-out: CLH
Mus musculus [3] = test: Toxicity in mouse at 0.5 to 1.5 mg/kg, iv administered as single dose up to 48 hrs; type: organism-based; settings: in vivo
[4] = Half life in mouse at 1 mg/kg, iv administered as single dose; type: ADME, organism-based; settings: in vivo
[5] = Clearance in mouse at 1 mg/kg, iv administered as single dose; type: ADME, organism-based; settings: in vivo
[6] = Half life in mouse at 100 mg/kg, po administered as single dose; type: ADME, organism-based; settings: in vivo
[7] = Clearance in mouse at 100 mg/kg, po administered as single dose; type: ADME, organism-based; settings: in vivo
Mus musculus [8] = test: Volume of distribution in mouse at 0.5 to 1.5 mg/kg, iv administered as single dose; type: ADME, organism-based; settings: in vivo
Mus musculus [9] = test: Cmax in mouse at 50 to 200 mg/kg, po administered as single dose; type: ADME, organism-based; settings: in vivo
Mus musculus [10] = test: AUClast in mouse at 50 to 200 mg/kg, po administered as single dose; type: ADME, organism-based; settings: in vivo
Mus musculus [11] = test: Oral bioavailability in mouse at 50 mg/kg administered as single dose; type: ADME, organism-based; settings: in vivo
Mus musculus [12] = test: Toxicity in mouse at 50 to 200 mg/kg, po administered as single dose up to 48 hrs; type: organism-based; settings: in vivo
Mus musculus [13] = test: Toxicity in mouse at 200 mg/kg, po qd for 14 days; type: organism-based; settings: in vivo, 336 h
Mus musculus [14] = test: Toxicity in mouse at 200 mg/kg, po bid for 14 days; type: organism-based; settings: in vivo, 336 h
Mus musculus [15] = test: Toxicity in mouse assessed as weight loss at 200 mg/kg, po qd for 3 days; type: organism-based; settings: in vivo, 72 h
Mus musculus [16] = test: Toxicity in mouse assessed as weight loss at 200 mg/kg, po qd for 5 to 14 days; type: organism-based; settings: in vivo
[17] = Plasma concentration in mouse at 200 mg/kg, po qd for 14 days measured after 1 hr; type: ADME, organism-based
[18] = Plasma concentration in mouse at 200 mg/kg, po bid for 14 days measured after 1 hr; type: ADME, organism-based
[19] = Plasma concentration in mouse at 200 mg/kg, po administered as singe dose measured after 1 hr; type: ADME, organism-based
Liver [20] = test: Drug metabolism in mouse liver microsomes assessed as 1-benzyl-1-(piperidin-4-yl)-3-(3-(trifluoromethyl)phenyl)urea formation at 0.8 uM by LC-MS/MS analysis; type: ADME, microsome
Liver [21] = test: Drug metabolism in mouse liver microsomes assessed as aromatic ring oxidation at 0.8 uM by LC-MS/MS analysis; type: ADME, microsome
Liver [22] = test: Drug level in mouse liver microsomes treated with 1-benzyl-1-(1-(cyclopropylmethyl)piperidin-4-yl)-3-(3-(trifluoromethyl)phenyl)urea at 0.8 uM by LC-MS/MS analysis; type: ADME, microsome
Mus musculus [23] = test: Half life in mouse at 0.5 to 1.5 mg/kg, iv administered as single dose; type: ADME, organism-based; settings: in vivo
Mus musculus [24] = test: Clearance in mouse at 0.5 to 1.5 mg/kg, iv administered as single dose; type: ADME, organism-based; settings: in vivo
Plasma = test: Plasma concentration in mouse at 0.5 to 1.5 mg/kg, iv administered as single dose after 2 hrs; type: ADME, organism-based; settings: in vivo, BLD = below limit of detection

Chain of DCN1-like protein 1 (Q96GG9 whole entry): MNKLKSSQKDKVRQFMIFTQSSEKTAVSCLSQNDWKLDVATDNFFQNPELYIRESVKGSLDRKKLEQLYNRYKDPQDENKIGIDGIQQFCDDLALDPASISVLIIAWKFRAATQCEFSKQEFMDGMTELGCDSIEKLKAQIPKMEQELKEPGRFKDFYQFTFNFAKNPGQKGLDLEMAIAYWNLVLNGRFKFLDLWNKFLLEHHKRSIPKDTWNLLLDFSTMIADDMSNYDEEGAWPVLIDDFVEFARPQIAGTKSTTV

Compound	half-life at 0.8 µM [1] [min]	pIC50 (DCN1-like protein 1)	other results
CCCCN1CCC(N(Cc2ccccc2)C(=O)Nc2cccc(C)c2)CC1	10.7	5.89	–
O=C(Nc1cc(F)cc(C(F)(F)F)c1)N(Cc1ccccc1)C1CCN(Cc2cccc(Oc3ccccc3)c2)CC1	–	< 4.62	–
CCCN1CCC(N(Cc2cc(F)cc(C(F)(F)F)c2)C(=O)Nc2cccc(C(F)(F)F)c2)CC1	16.3	–	–
CCCC(C)N1CCC(N(Cc2ccccc2)C(=O)Nc2ccc(C(F)(F)F)cc2)CC1 (stereo not given)	27.3	6.50	–
COc1ccccc1CN1CCC(N(Cc2ccccc2)C(=O)Nc2cc(F)cc(C(F)(F)F)c2)CC1	–	< 4.60	–
CCCC(C)N1CCC(N(Cc2ccccc2)C(=O)Nc2ccc(C)c(F)c2)CC1 (stereo not given)	9	–	–
CCCCN1CCC(N(Cc2ccccc2)C(=O)Nc2cccc(C(F)(F)F)c2F)CC1	≤ 6	–	–
CCCCN1CCC(N(Cc2ccccc2)C(=O)Nc2cccc(F)c2)CC1	≤ 6	–	CLint scaled at 0.8 µM [2]: ≥ 500 mL/min/kg
CCCC(C)N1CCC(N(Cc2ccccc2)C(=O)Nc2cc(C(F)(F)F)ccc2F)CC1 (stereo not given)	48.5	5.13	–
CCCC(C)N1CCC(N(Cc2ccccc2)C(=O)Nc2ccc3ccccc3c2)CC1 (stereo not given)	≤ 6	7.74	CLint scaled at 0.8 µM [2]: ≥ 500 mL/min/kg
CCCCN1CCC(N(Cc2ccccc2)C(=O)Nc2cc(F)cc(F)c2)CC1	≤ 6	–	CLint scaled at 0.8 µM [2]: ≥ 500 mL/min/kg
CCCCN1CCC(N(Cc2ccc3c(c2)OCO3)C(=O)Nc2cccc(C(F)(F)F)c2)CC1	14.7	–	–
CCCCN1CCC(N(Cc2ccccc2)C(=O)Nc2ccc(Cl)c(Cl)c2)CC1	126 to 127	–	CLint scaled at 0.8 µM [2]: 25 to 25.6 mL/min/kg; Activity (Mus musculus [3]): Non-Toxic; half-life [4]: 216 min; clearance [5]: 283 mL/min/kg; half-life [6]: 252 min; CL/F [7]: 367 mL/min/kg; Vd (Mus musculus [8]): 87.3 to 176 L/kg; Cmax (Mus musculus [9]): 1500 to 3000 nM; AUClast (Mus musculus [10]): 3.4 to 17.1 µM·h; F (Mus musculus [11]): 88%; Activity (Mus musculus [12]): Non-Toxic; Activity (Mus musculus [13]): Non-Toxic; Activity (Mus musculus [14]): Non-Toxic; Activity (Mus musculus [15]): 3 to 5%; Activity (Mus musculus [16]): Non-Toxic; concentration at 1 h [17]: 2400 nM; concentration at 1 h [18]: 3300 nM; concentration at 1 h [19]: 3000 nM
O=C(Nc1cc(F)cc(C(F)(F)F)c1)N(Cc1ccccc1)C1CCN(Cc2ccncc2)CC1	–	< 4.55	–
Cn1cncc1CN1CCC(N(Cc2ccccc2)C(=O)Nc2cc(F)cc(C(F)(F)F)c2)CC1	–	< 4.62	–
CCCCN1CCC(N(Cc2ccccc2)C(=O)Nc2ccc(F)c(Cl)c2)CC1	84	–	–
CCCC(C)N1CCC(N(Cc2ccccc2)C(=O)Nc2cccc(Cl)c2)CC1 (stereo not given)	≤ 6	6.52	–
CCCC(C)N1CCC(N(Cc2ccccc2)C(=O)Nc2ccc(I)cc2)CC1 (stereo not given)	29.9	7.27	–
O=C(Nc1cccc(C(F)(F)F)c1)N(Cc1ccccc1)C1CCN(CC2CC2)CC1	< 6	–	Drug metabolism (Liver [20]): Metabolite_Detected; Drug metabolism (Liver [21]): Metabolite_Detected

Compound	half-life at 0.8 µM [1] [min]	pIC50 (DCN1-like protein 1)	other results
CCCC(C)N1CCC(N(Cc2ccccc2)C(=O)Nc2cc(F)cc(C(F)(F)F)c2)CC1 (stereo not given)	11.8	–	–
CCCN1CCC(N(Cc2ccccc2)C(=O)Nc2cccc(C(F)(F)F)c2)CC1	10.2	–	–
CCCC(C)N1CCC(N(Cc2ccccc2)C(=O)Nc2ccc3c(c2)CCC3)CC1 (stereo not given)	≤ 6	–	–
CCCC(C)N1CCC(N(Cc2ccccc2)C(=O)Nc2ccc(C(C)(C)C)cc2)CC1 (stereo not given)	–	5.76	–
O=C(Nc1cc(F)cc(C(F)(F)F)c1)N(Cc1ccccc1)C1CCN(Cc2nc3ccccc3s2)CC1	–	< 4.60	–
CCCCN1CCC(N(Cc2ccccc2)C(=O)Nc2cc(F)cc(C(F)(F)F)c2)CC1	146	–	–
O=C(Nc1cccc(C(F)(F)F)c1)N(Cc1ccccc1)C1CCNCC1	–	–	Drug metabolism (Liver [22]): Metabolite_Detected
CCCC(C)N1CCC(N(Cc2ccccc2)C(=O)Nc2ccc(C(C)C)cc2)CC1 (stereo not given)	10.6	–	–
Cn1ccnc1CN1CCC(N(Cc2ccccc2)C(=O)Nc2cc(F)cc(C(F)(F)F)c2)CC1	–	< 4.55	–
CCCCN1CCC(N(Cc2ccccc2)C(=O)Nc2ccc(F)c(C(F)(F)F)c2)CC1	116	6.21	–
Cn1ccc2cc(CN3CCC(N(Cc4ccccc4)C(=O)Nc4cc(F)cc(C(F)(F)F)c4)CC3)ccc21	–	< 4.68	–
CCCC(C)N1CCC(N(Cc2ccccc2)C(=O)Nc2ccc(Cl)cc2)CC1 (stereo not given)	22.1	6.95	–
O=C(Nc1cccc(C(F)(F)F)c1)NC1CCN(Cc2ccccc2)CC1	35.5	–	–
CCCC(C)N1CCC(N(Cc2ccccc2)C(=O)Nc2ccc(C(F)(F)F)nc2C)CC1 (stereo not given)	> 240	4.88	–
CCCC(C)N1CCC(N(Cc2ccccc2)C(=O)Nc2ccc(F)c(F)c2)CC1 (stereo not given)	11.3	–	–
CCCC(C)N1CCC(N(Cc2ccccc2)C(=O)Nc2ccc(F)c(C(F)(F)F)c2)CC1 (stereo not given)	23.6	6.54	–
CCCC(C)N1CCC(N(Cc2ccccc2)C(=O)Nc2ccc3c(c2)OCO3)CC1 (stereo not given)	≤ 6	–	CLint scaled at 0.8 µM [2]: ≥ 500 mL/min/kg
COc1cccc(CN2CCC(N(Cc3ccccc3)C(=O)Nc3cc(F)cc(C(F)(F)F)c3)CC2)c1	–	< 4.55	–
CCCCN1CCC(N(Cc2ccccc2)C(=O)Nc2cccc(Cl)c2)CC1	≤ 6	–	–

Compound	half-life at 0.8 µM [1] [min]	pIC50 (DCN1-like protein 1)	other results
CCCC(C)N1CCC(N(Cc2ccccc2)C(=O)Nc2cccc(C(C)C)c2)CC1 (stereo not given)	13.4	6.45	–
CCCC(C)N1CCC(N(Cc2ccccc2)C(=O)Nc2cc(Cl)ccc2F)CC1 (stereo not given)	14.9	< 4.47	–
CCCC(C)N1CCC(N(Cc2ccccc2)C(=O)Nc2ccc(Br)cc2)CC1 (stereo not given)	23.2	7.17	–
Cc1ccc(CN2CCC(N(Cc3ccccc3)C(=O)Nc3cc(F)cc(C(F)(F)F)c3)CC2)o1	–	< 4.62	–
CCCN1CCC(N(Cc2ccco2)C(=O)Nc2cccc(C(F)(F)F)c2)CC1	8.22	–	–
CCCC(C)N1CCC(N(Cc2ccccc2)C(=O)Nc2ccc3ncsc3c2)CC1 (stereo not given)	14.3	–	–
CCCC(C)N1CCC(N(Cc2ccccc2)C(=O)Nc2cccc(C(F)(F)F)c2)CC1 (stereo not given)	19.6 to 19.8	–	CLint scaled at 0.8 µM [2]: 165 to 170 mL/min/kg; Activity (Mus musculus [3]): Non-Toxic; t1/2 (Mus musculus [23]): 8.4 min; CL (Mus musculus [24]): 700 mL/min/kg; Cp (Plasma): Bld; Vd (Mus musculus [8]): 87.3 to 176 L/kg
CCCCN1CCC(N(Cc2ccccc2)C(=O)Nc2cccc(C#N)c2)CC1	9.3	5.37	–
CCCC(C)N1CCC(N(Cc2ccccc2)C(=O)Nc2cccc(F)c2)CC1 (stereo not given)	≤ 6	5.77	–
CCCCN1CCC(N(Cc2ccccc2)C(=O)Nc2cccc(C(F)(F)F)c2)CC1	9	–	–
CCCC(C)N1CCC(N(Cc2ccccc2)C(=O)Nc2cc(F)cc(Cl)c2)CC1 (stereo not given)	≤ 6	–	CLint scaled at 0.8 µM [2]: ≥ 500 mL/min/kg
CCCC(C)N1CCC(N(Cc2ccccc2)C(=O)Nc2ccc(C)cc2)CC1 (stereo not given)	9.6	6.45	–
CCCC(C)N1CCC(N(Cc2ccccc2)C(=O)Nc2ccc(Cl)c([N+](=O)[O-])c2)CC1 (stereo not given)	22.7	–	–
CCCCN1CCC(N(Cc2ccccc2)C(=O)Nc2ccc(C)c(Cl)c2)CC1	17.2	6.49	–
O=C(Nc1cc(F)cc(C(F)(F)F)c1)N(Cc1ccccc1)C1CCN(Cc2ccc(Cc3ccccc3)cc2)CC1	–	< 4.66	–
CC(C)(C)N1CCC(N(Cc2ccc3c(c2)OCO3)C(=O)Nc2cccc(C(F)(F)F)c2)CC1	7.44	–	–
CCCC(C)N1CCC(N(Cc2ccccc2)C(=O)Nc2ccc3ncccc3c2)CC1 (stereo not given)	–	< 4.70	–
CCCN1CCC(N(Cc2ccc3c(c2)OCO3)C(=O)Nc2cccc(C(F)(F)F)c2)CC1	< 6	–	–
CCCC(C)N1CCC(N(Cc2ccccc2)C(=O)Nc2ccc(C#N)c(C(F)(F)F)c2)CC1 (stereo not given)	55.9	–	–
